The text below walks through data of US10941160B2, “Bromodomain inhibitors” (CELGENE QUANTICEL RESEARCH, INC., priority 2013, dated 2021).

Assay [1] concerns NCI-H460, human non-small cell lung cancer cells. In words: Cell-MTS cellular proliferation assay, NCI-H460. Format: cell-based. Here is the method:
(§1) The Cell-MTS assay is a 7-day plate-based colorimetric assay which quantifies the amount of newly generated NADH in the presence or absence of test compound. The NADH level is used for the quantification of cancer cell proliferation.
(§2) Established cancer cell lines with a variety of driving mutations were obtained from American Type Culture Collection (ATCC) and routinely passaged according to ATCC protocols. For routine assay, these cells were seeded at densities which enabled ˜90% confluence after 7 days of culture. Raji, human Burkitts lymphoma cells, (cMYC) were seeded at 15,000 cells per 96-well. HL-60, human proleukemia cells, (NRAS, p16, p53, c-Myc amplified) were seeded at 5,000 cells per 96-well. NCI-H460, human non-small cell lung cancer cells, (KRAS, PIK3CA, STLK11, p16) were seeded at 3,000 cells per 96-well 24 hr after plating, cells received an 11-point dilution of test compound with final concentration ranges from 100 μM to 2.0 nM. […] At the end of this incubation period, 80 μL of media is removed and 20 μL of CellTiter 96® AQueous Non-Radioactive Cell Proliferation Assay soln (Promega) was added. The cells were incubated until the OD490 was >0.6. IC50 values were calculated using the IDBS XLtit software package and include background subtracted OD490 values and normalization to DMSO controls. Cellular proliferation IC50 values were uploaded and archived using the Chem Biography Platform.
In general terms: Tetrazolium dyes change colour on reduction, which living cells bring about.

For a further assay, the target named is BRD4(BD1) (Homo sapiens (Human), UniProt O60885). In words: In vitro enzyme inhibition assay (BRD4 AlphaScreen, H4-tetraacetyl peptide). Format: binding. Here is the method: His-tagged BRD4 was cloned, expressed and purified to homogeneity. […] BRD4 binding and inhibition was assessed by monitoring the interaction of biotinylated H4-tetraacetyl peptide (AnaSpec, H4K5/8/12/16(Ac), biotin-labeled) with the target using the AlphaScreen technology (Life Technologies). […] After 20 min incubation at room temp, Alpha streptavidin donor beads and Nickel Chelate acceptor beads were added to a final concentration of 5 μg/mL.
The ability of the compounds disclosed herein to inhibit BRD4 activity was quantified and the respective IC50 value was determined.
On the technique in general: In Alpha technology, singlet oxygen from a donor bead excites a nearby acceptor bead.

For assay [2], the system named is HL-60, human proleukemia cells. Kind of assay: Cell-MTS cellular proliferation assay, HL-60. Format: cell-based. Here is the method:
as §1, §2

The subject of assay [3] is Raji, human Burkitts lymphoma cells. In words: Cell-MTS cellular proliferation assay, Raji. Format: cell-based. Here is the method:
as §1, §2

[4] abbreviates: in vitro enzyme inhibition assay, class symbols, read-out: BRD4 IC50.

The IC50 is the concentration that gives 50% inhibition.

Where two headings read alike, the source gives them in different places.

For the compound `Cn1cc(-c2cc(S(C)(=O)=O)ncc2OCC2CC2)c2ccc(F)cc2c1=O` [Example 203, 4-[5-(cyclopropylmethoxy)-2-methylsulfonylpyridin-4-yl]-7-fluoro-2-methylisoquinolin-1-one], the IC50 in assay [1] (Homo sapiens, NCI-H460, 168 hr, class symbols) was above 5 µM; at BRD4(BD1) (setting [4]), below 500 nM; in assay [2] (Homo sapiens, HL-60, Cell-MTS proliferation, 168 hr, class symbols, read-out: HL-60 IC50), below 0.5 µM; in assay [3] (Homo sapiens, Raji, Cell-MTS proliferation, 168 hr, class symbols, read-out: Raji IC50) it was below 0.5 µM.
As to `Cn1cc(-c2cc(OS(N)(=O)=O)ccc2OCC2CC2)c2ccccc2c1=O` [Example 214, [4-(cyclopropylmethoxy)-3-(2-methyl-1-oxoisoquinolin-4-yl)phenyl] sulfamate], the IC50 on BRD4(BD1) (setting [4]) was below 500 nM.
Consider `COc1ccc(-c2cn(C)c(=O)c3cnccc23)cc1S(=O)(=O)NCc1ccccc1` [Example 54, N-benzyl-2-methoxy-5-(2-methyl-1-oxo-2,7-naphthyridin-4-yl) benzenesulfonamide], for which the IC50 in assay [1] (Homo sapiens, NCI-H460, 168 hr) is above 5 µM; in assay [2] (Homo sapiens, HL-60, Cell-MTS proliferation, 168 hr, read-out: HL-60 IC50), 0.5 to 5 µM; in assay [3] (Homo sapiens, Raji, Cell-MTS proliferation, 168 hr, read-out: Raji IC50) it was above 5 µM.
For the compound `Cn1cc(-c2cccc(S(N)(=O)=O)c2)c2ccc(F)cc2c1=O` [Example 61, 3-(7-fluoro-2-methyl-1-oxoisoquinolin-4-yl) benzenesulfonamide], the IC50 on BRD4(BD1) (in vitro enzyme inhibition assay, read-out: BRD4 IC50) was below 500 nM; in assay [2] (Cell-MTS proliferation, 168 hr, read-out: HL-60 IC50), 0.5 to 5 µM; in assay [3] (Cell-MTS proliferation, 168 hr, read-out: Raji IC50), 0.5 to 5 µM.
With “N-[5-(cyclopropylmethoxy)-4-(7-fluoro-2-methyl-1-oxoisoquinolin-4-yl) pyrimidin-2-yl]methanesulfonamide [Example 158]”, the IC50 in assay [1] (168 hr, class symbols) is above 5 µM; on BRD4(BD1) (read-out: BRD4 IC50), below 500 nM; in assay [2] (Cell-MTS proliferation, 168 hr, class symbols, read-out: HL-60 IC50), below 0.5 µM; in assay [3] (Cell-MTS proliferation, 168 hr, class symbols, read-out: Raji IC50) it was below 0.5 µM.
For `CCNS(=O)(=O)c1cccc(-c2cn(C)c(=O)c3ccc(F)cc23)c1` [Example 49, N-ethyl-3-(6-fluoro-2-methyl-1-oxoisoquinolin-4yl) benzenesulfonamide], the IC50 fell in the range of 500 to 5000 nM on BRD4(BD1); 0.5 to 5 µM in assay [2] (Homo sapiens, HL-60, 168 h, read-out: HL-60 IC50 (μM)); 0.5 to 5 µM in assay [3] (Homo sapiens, Raji, 168 h, read-out: Raji IC50 (μM)).
As for `Cc1cc(-c2cc(OS(N)(=O)=O)ccc2OCC2CC2)cn(C)c1=O` [Example 215, [4-(cyclopropylmethoxy)-3-(1,5-dimethyl-6-oxopyridin-3-yl)phenyl] sulfamate], the IC50 at BRD4(BD1) (setting [4]) was below 500 nM.
